Assay results reported in PMC8648872, “A host-directed macrocyclic peptide therapeutic for MDR gram negative bacterial infections” (Scientific Reports, 2021).
Values after ≈ are worked out from the molar mass of the structure shown. Where a SMILES comes first, the peptide text is derived from it. Bridges are numbered along the chain shown (N, C = ends).

What was measured:
Kp-1705 = assay: Bacterial burden in Kp-1705 infected mice; type: in vivo, BALB/c mice; details: 1.25 mg/kg i.p. 1 h p.i.
Protocol: (§1) BALB/c mice (Jackson Laboratories) 8–10 weeks of age were acclimated (3–5 to a cage for at least 5 days prior to infection) in a thermostatically controlled room with 12 h light/dark cycle. Cryopreserved K. pneumoniae cells were thawed and adjusted to a density of 6–10 × 10^8 CFU/ml, confirmed by plating on trypticase soy agar (TSA) plates. E. coli BAA-2340 was grown to log-phase in trypticase soy broth, pelleted, washed with PBS, and resuspended in PBS at 0.5–1 × 10^9 CFU/ml. Mice were infected by i.p. injection of 2–5 × 10^8 CFU of Kp-1705 or 3–6 × 10^7 CFU of E. coli BAA-2340 using a 28 g needle in a volume of 0.5 ml. Post-infection, mice were observed three times a day for at least 4 days and then daily for 28 days. Mice were euthanized when they became moribund. All experiments used both male and female mice and were repeated at least twice.
(§2) Blood, peritoneal lavage fluid, and spleen homogenates were obtained from mice following by CO2 euthanasia. Citrate-anti-coagulated blood was collected by aseptic cardiac puncture. Peritoneal lavage was performed by injecting 3 ml of PBS into the peritoneal cavity, massaging the abdomen, and then collecting fluid aseptically through a minor incision in the abdominal wall. Spleen was surgically removed and homogenized in sterile PBS using Polytron PT10-35 homogenizer. Samples were serially diluted and plated in triplicate on TSA plates, incubated overnight at 37 °C and colonies counted.

E. coli BAA-2340 = assay: CRE E. coli BAA-2340 septicemia, survival; type: in vivo, BALB/c mice; details: KPC+ E. coli BAA-2340 i.p., saline controls 10%
Protocol: as §1

[1] = test system: K. pneumoniae 700603 (ESBL); assay: microbe, parasite or virus in culture; type: cell-based
Protocol: Bacterial strains were obtained from American Type Culture Collection. K. pneumoniae strains included BAA-1705 (blaKPC-2, hypermucoid), BAA-2146 (blaNDM-1), BAA-700603 (SHV-18, extended spectrum β-lactamase, ESBL), and BAA-1706 (non-CRE reference strain). E. coli strains included BAA-2340 (blaKPC-2), BAA-2471 (blaNDM-1), and ML35 (non-CRE reference strain).
Minimum inhibitory concentration (MIC) assays were performed ± 50% heat-inactivated mouse serum using Clinical and Laboratory Standards Institute (CLSI; document M07-A9) protocols. Bacteria (5 × 10^5 CFU/ml) were incubated with antibiotics or peptide for 20 h at 37 °C, and bacterial growth was determined by A620 using a SpectraMax M5e plate reader.

neutrophils = assay: Neutrophil recruitment (peritoneal lavage and blood); type: in vivo, BALB/c mice
Protocol: as §2
EDTA-anticoagulated blood was collected aseptically by terminal cardiac puncture and analyzed for complete blood cell count using an Element HT5 hematology analyzer (Heska). Blood plasma and clarified peritoneal lavage were prepared by two-step centrifugation described previously. Plasma cytokine levels were quantified using a mouse-specific MILLIPLEX MAP kit (Millipore Cat# MCYTMAG-70K) as described.

[2] = Peptide stability with log-phase Kp-1705 (bacterial proteases); type: in vitro ADME, K. pneumoniae; details: suspension of log-phase Kp-1705 bacteria, log-phase Kp-1705 (5 × 10^7 CFU/ml), 50 mM HEPES pH 7.4, 37 °C, LC–MS/MS, read-out: MTD12813 found intact
Protocol: MTD12813 (final concentration of 100 µg/ml) was added to either 90% human EDTA plasma or 90% human serum and incubated at 37 °C for 48 h. Samples were processed by addition of 10% HOAc and 5% ACN (final concentrations) at time 0 and 48 h, and MTD12813 was quantified by C18 RP-HLPC on an Acquity H-Class UPLC with an analytical PDA detector using Empower 3 software (Waters). All samples were performed with technical replicates and analyzed by UPLC in duplicate and the experiment repeated once. […] A time 0 h sample was collected, and the remaining suspension incubated at 37 °C for 24 h. Samples were processed by addition of 5% formic acid/5% acetonitrile, vortexed, and clarified at 22,000×g for 10 min. Supernatant MTD12813 was then quantified by LC–MS/MS as described in PK section above. All samples were performed with technical replicates and analyzed by LC–MS/MS in duplicate.

RAW 264.7 macrophages [3] = assay: TNF release by LPS-stimulated RAW 264.7 cells; type: cell-based, mouse; details: RAW 264.7, 5 ng/ml LPS, 2 h, ELISA
Protocol: (§3) Mouse RAW 264.7 macrophages (RAW cells; ATCC, TIB-71) were grown in Dulbecco’s Modified Eagle Medium (DMEM) with 10% heat-inactivated fetal bovine serum (HI-FBS) with 100 U/ml penicillin/streptomycin, and suspended to 2–3 × 10^6 cells/ml in fresh media before use.
RAW cells were seeded into 48-well tissue culture plates at 1–1.5 × 10^5 cells/well and allowed to adhere overnight. Cells were washed twice and suspended in DMEM with 1% FBS with 0–5 µg/ml of MTD12813 immediately followed by addition of 5 ng/ml (25 EU/ml) of E. coli 0111:B4 LPS (Sigma L4391). Plates were incubated for 2 h at 37 °C in 5% CO2. Well contents were removed, clarified by centrifugation, and supernatants frozen at − 80 °C. Supernatant TNF was quantified by mouse TNF ELISA (Invitrogen, Cat #BMS607-3).

RAW 264.7 macrophages [4] = assay: Phagocytosis assay, RAW 264.7 macrophages with live Kp-1705; type: cell-based, mouse; details: RAW 264.7 cells, live Kp-1705, MOI 50:1, 0–10 µg/ml peptide, 30 min, 37 °C
Protocol: as §3
Kp-1705 was grown overnight, harvested by centrifugation, washed twice, resuspended in Hank’s Balanced Salt Solution (HBSS), and adjusted to a density of 2.5 × 10^8 CFU/ml. Bacteria were pre-incubated with varied concentrations of MTD12813 at room temperature for 30 min, and incubated (MOI 50:1) with RAW cells (2.5 × 10^6 cell/ml) with orbital shaking at 37 °C for 30 min. Cytospin preparations of 100 µl (2.5 × 10^5 RAW cells/slide) samples were then prepared, fixed with methanol, and stained with hematoxylin and eosin (H & E). Slides were viewed at 100× and 50 RAW cells selected from random fields were manually counted for number of cell associated bacteria. All samples were run in duplicate and experiments performed twice.

SMILES: CC[C@H](C)[C@@H]1NC(=O)[C@@H]2CSSC[C@H](NC(=O)[C@H]([C@@H](C)CC)NC(=O)[C@@H]3CSSC[C@H](NC1=O)C(=O)N[C@@H](C(C)C)C(=O)NCC(=O)N[C@@H](CCCNC(=N)N)C(=O)NCC(=O)N3)C(=O)N[C@@H](C(C)C)C(=O)N[C@@H](CCCNC(=N)N)C(=O)N[C@@H](CCCNC(=N)N)C(=O)N[C@@H](CCCNC(=N)N)C(=O)N2 [MTD12813] (cyclo(CICVGRGCICVRRR); disulfide 1-10, 3-8)
- reduction of viable bacteria versus saline, PLF (Kp-1705; 4 h p.i.): 99.5%
- reduction of viable bacteria versus saline, blood (Kp-1705; 4 h p.i.): 79.1%
- reduction of viable bacteria versus saline, spleen (Kp-1705; 4 h p.i.): 70.4%
- reduction of bacterial burden, PLF (Kp-1705; 24 h): 99.8%
- reduction of bacterial burden, blood (Kp-1705; 24 h): 93.8%
- reduction of bacterial burden, spleen homogenates (Kp-1705; 24 h): 94.4%
- survival ≥ 28 days (E. coli BAA-2340; single i.p. injection 1.25 mg/kg 1 h p.i.): 100%
- survival ≥ 28 days (E. coli BAA-2340; single i.p. injection 5 mg/kg 1 h p.i.): 100%
- MIC ([1]; 50% heat inactivated mouse serum): > 100 µg/mL
- MIC ([1]; CLSI, 20 h, 37 °C, A620, no serum): 6.25 µg/mL (≈ 3.98 µM)
- PLF neutrophils versus saline (neutrophils; Kp-1705 infected mice, 1.25 mg/kg i.p. 1 h p.i., 24 h, P = 0.0048): threefold increase
- blood neutrophils (neutrophils; Kp-1705 infected mice, 1.25 mg/kg i.p. 1 h p.i., peak at ca. 2 h p.i.): transient peripheral blood neutrophilia
- PLF neutrophil numbers in sham-infected mice (neutrophils; sham-infected mice, 24 h after peptide delivery): no increase in neutrophil numbers
- remaining at 24 h, 1.25 µg/ml [2]: 72.4 ± 0.93%
- concentration for 50% TNF suppression relative to RTD-1 (RAW 264.7 macrophages [3]): ca. fourfold lower concentration than RTD-1
- concentration of maximal phagocytic activity (RAW 264.7 macrophages [4]): 0.313 µg/mL
